Source: PMC7181634, “Enhanced succinic acid production by Mannheimia employing optimal malate dehydrogenase” (Nature Communications, 2020)

Columns and labels:
MsMDH = biological target: T1, MsMDH ([Mannheimia] succiniciproducens, UniProt Q65T37); assay: NADH oxidation at […] nm; modified Briggs-Haldane fit; type: biochemical; details: pH 7.0, 0.1 M Tris-HCl, NADH co-substrate, room temperature; uncompetitive substrate inhibition
T1 construct: gene mdh; full length, C-terminal 6xHis (pET30a), expressed in E. coli BL21(DE3), Ni-NTA, ion exchange and size exclusion
T1 sequence (Q65T37 1-312): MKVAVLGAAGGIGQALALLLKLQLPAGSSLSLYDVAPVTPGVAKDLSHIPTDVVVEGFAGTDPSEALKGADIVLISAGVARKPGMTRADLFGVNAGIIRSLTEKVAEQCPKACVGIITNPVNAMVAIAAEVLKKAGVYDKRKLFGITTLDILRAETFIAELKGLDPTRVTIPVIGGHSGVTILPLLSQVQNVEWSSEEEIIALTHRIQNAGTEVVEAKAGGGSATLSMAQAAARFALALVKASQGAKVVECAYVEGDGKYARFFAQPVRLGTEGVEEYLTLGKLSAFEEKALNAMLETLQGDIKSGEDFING

CgMDH = biological target: T2, CgMDH (Corynebacterium glutamicum, UniProt Q8NN33); assay: as above; type: biochemical; details: pH 7.0, 0.1 M Tris-HCl, NADH co-substrate, room temperature; substrate inhibition
T2 construct: gene mdh; full length, C-terminal 6xHis (pET30a), expressed in E. coli BL21(DE3), Ni-NTA, ion exchange and size exclusion
T2 sequence (Q8NN33 whole entry): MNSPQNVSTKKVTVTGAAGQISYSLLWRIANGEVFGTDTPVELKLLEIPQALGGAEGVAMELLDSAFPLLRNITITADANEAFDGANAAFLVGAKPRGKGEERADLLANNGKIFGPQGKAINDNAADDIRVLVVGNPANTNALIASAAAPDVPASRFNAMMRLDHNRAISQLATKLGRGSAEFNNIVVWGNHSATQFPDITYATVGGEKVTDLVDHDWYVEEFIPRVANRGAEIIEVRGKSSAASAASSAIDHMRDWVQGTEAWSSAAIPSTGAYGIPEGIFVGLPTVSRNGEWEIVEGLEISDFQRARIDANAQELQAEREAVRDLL

- MsMDH / ki (MsMDH): 47.3 ± 22.1 µM
- CgMDH / ki (CgMDH): 500.0 ± 114.1 µM
Compound: O=C(O)CC(=O)C(=O)O [oxaloacetate]
